In PMC7316994, “In Vitro Pharmacological Profile of a New Small Molecule Bradykinin B2 Receptor Antagonist” (Frontiers in Pharmacology, 2020):
Read-outs that look alike come from different tables or passages of the source. Peptide text beside a SMILES is read from it.

What was measured:
[1] = molecular target: T1, endogenous human B2 receptor (Homo sapiens, UniProt P30411); assay: human isolated umbilical vein contractility assay, BK-induced contraction; details: for type of antagonism of BK: BK concentration-effect curves, Emax; for pA2 / Kb: Schild plot; for pA2 / Kb / Schild plot slope: Pharm/PCS, ± S.E.M. where given; for Kb: read-out: pA2 (converted); for Schild plot slope: Schild regression; for Maximal BK-induced response in absolute force units ± S.E.M.: vehicle: Icatibant 1.90, Compound 1 […]; for pA2 value converted into nM: potency from pA2
T1 construct: BK-induced contraction at endogenous human B2 receptor in the umbilical vein model; from tissue; host or cells: human umbilical vein rings (donor cords after elective caesarean section)
T1 sequence (P30411 1-391): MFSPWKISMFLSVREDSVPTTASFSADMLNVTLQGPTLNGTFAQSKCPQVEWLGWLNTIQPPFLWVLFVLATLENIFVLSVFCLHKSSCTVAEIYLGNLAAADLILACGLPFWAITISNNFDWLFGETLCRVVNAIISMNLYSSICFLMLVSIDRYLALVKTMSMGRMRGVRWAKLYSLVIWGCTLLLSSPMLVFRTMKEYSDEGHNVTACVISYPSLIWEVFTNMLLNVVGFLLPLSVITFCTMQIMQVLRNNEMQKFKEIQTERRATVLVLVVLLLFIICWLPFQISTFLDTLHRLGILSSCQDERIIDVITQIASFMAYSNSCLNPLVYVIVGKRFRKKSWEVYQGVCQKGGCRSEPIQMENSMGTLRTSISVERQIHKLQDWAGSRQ

[2] = molecular target: T2, 5-HT2A receptor (Homo sapiens, UniProt P28223); assay: umbilical vein, serotonin-induced contraction; details: Compound 2 10 μM; Compound 3 1 μM
T2 construct: other endogenously expressed receptors in the human umbilical vein; from tissue; host or cells: human umbilical vein rings
T2 sequence (P28223 whole entry): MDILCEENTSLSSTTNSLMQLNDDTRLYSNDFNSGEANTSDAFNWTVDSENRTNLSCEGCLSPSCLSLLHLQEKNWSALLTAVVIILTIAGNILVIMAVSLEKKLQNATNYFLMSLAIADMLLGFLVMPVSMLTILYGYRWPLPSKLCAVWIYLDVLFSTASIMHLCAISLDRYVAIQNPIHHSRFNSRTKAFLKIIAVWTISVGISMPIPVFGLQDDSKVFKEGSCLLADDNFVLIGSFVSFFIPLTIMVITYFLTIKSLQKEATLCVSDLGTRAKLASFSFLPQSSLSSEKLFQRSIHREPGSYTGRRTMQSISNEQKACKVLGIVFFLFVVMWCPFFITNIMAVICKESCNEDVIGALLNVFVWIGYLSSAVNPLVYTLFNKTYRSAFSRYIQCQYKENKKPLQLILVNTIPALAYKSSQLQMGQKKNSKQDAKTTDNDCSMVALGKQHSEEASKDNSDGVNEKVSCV
From the text: (§1) The local ethics committee (CHU de Québec-Université Laval) had approved the project (File no. 2017-3720). Umbilical cords were obtained following elective caesarean sections; all problematic deliveries are excluded. Informed consent was obtained from the mothers. The cords were transported from the maternity ward to the laboratory in sterile Hank's balanced salt solution containing penicillin and streptomycin. Segments of umbilical veins were dissected carefully from the cords and a metal rod was inserted in the lumen. Excess connective tissue was excised and rings (2–3 mm wide) were cut. Rings of umbilical veins were suspended in 5-mL organ chambers containing oxygenated (95% O2, 5% CO2) and warmed (37°C) Krebs' solution between a metal hook and a thread loop. This solution had the following composition: NaCl 117.5 mM, KCl 4.7 mM, KH2PO4 1.2 mM, MgSO4 1.18 mM, CaCI2 2.5 mM, NaHCO3 25.0 mM, and D-glucose 5.5 mM. A baseline of one gram-weight was applied to these preparations. Changes of tension were recorded by using isometric transducers (model 52-9545, Harvard Bioscience, South Natick MA). Eight tissue baths are operated in parallel.
(§2) For this purpose, contractile responses to serotonin, acting on the 5-HT2A receptor, and U-46619, acting at the prostanoid TP receptor, were measured ([Rogines-Velo et al., 2002]; [Daray et al., 2003]).

[3] = molecular target: T3, prostanoid TP receptor (Homo sapiens, UniProt P21731); assay: umbilical vein, U-46619-induced contraction; details: Compound 2 10 μM; Compound 3 1 μM
T3 construct: endogenous human prostanoid TP receptors in the umbilical vein model; from tissue; host or cells: human umbilical vein rings
T3 sequence (P21731 whole entry): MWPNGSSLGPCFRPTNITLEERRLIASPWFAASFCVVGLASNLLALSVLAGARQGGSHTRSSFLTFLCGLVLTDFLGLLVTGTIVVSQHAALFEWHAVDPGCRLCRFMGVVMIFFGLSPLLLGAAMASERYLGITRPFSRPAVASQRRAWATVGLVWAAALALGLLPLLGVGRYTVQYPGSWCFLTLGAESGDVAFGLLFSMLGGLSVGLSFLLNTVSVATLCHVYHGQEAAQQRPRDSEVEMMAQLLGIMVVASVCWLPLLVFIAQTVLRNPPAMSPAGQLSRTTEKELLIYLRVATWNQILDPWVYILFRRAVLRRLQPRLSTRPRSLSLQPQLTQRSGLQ
From the text: as §1, §2

[4] = molecular target: T4, human myc-B2 receptor (Homo sapiens, UniProt P30411); assay: c-Fos immunoblot, HEK 293a cells stably expressing myc-B2 receptor; assay type: cell-based; details: BK 10 nM
T4 construct: expressed in transfected cells
T4 sequence (P30411 1-391): T1 sequence (P30411 1-391)
From the text: Supplementary Methods: Immunoblots for c-Fos signaling
The construction of myc-tagged B2 receptor expression vector containing the human receptor sequence has been recently reported, as well as the derivation of HEK293a cell lines that stably express the construction (Charest-Morin et al., 2015). Immunoblotting experiments, conducted as described (Koumbadinga et al., 2010), were used to study the effect of selected antagonists on BK-induced signaling. Briefly, HEK 293a cells stably expressing the human myc-B2 receptor were stimulated with BK agonists for 60 min at 37°C, with or without a pretreatment with the antagonist (applied 15 min before BK). Total cell extracts were immunoblotted to detect c-Fos expression using the K-25 rabbit polyclonal antibodies (Santa Cruz Biotechnology, Dallas, TX; dilution 1:50,000). In these experiments, β-actin was used as a loading control and was detected using the monoclonal anti-β-actin antibody, clone AC-15 (Sigma-Aldrich; dilution 1:50,000).

[5] = molecular target: T5, myc-tagged human B2 receptor (Homo sapiens, UniProt P30411); assay: antibody internalization assay, HEK 293a cells; assay type: cell-based; details: BK 100 nM; antagonist 1 nM to 1 μM, 15 min before BK
T5 construct: expressed in transfected cells
Experimental: B2 receptor-mediated transport of immune complexes constructed at the cell surface was previously reported ([Bawolak et al., 2011]). Intact HEK 293a cells stably expressing the N-terminally myc-tagged B2 receptor construction (human sequence, [Charest-Morin et al., 2015]) were treated with the monoclonal anti-myc antibody (clone 4A6) conjugated with AlexaFluor-488 (Millipore, dilution 1:500) added to the culture medium. Cells were further incubated at 37°C. Without rinsing, a selected antagonist or their DMSO vehicle was added 5 min later, and BK (100 nM) or its saline vehicle 15 min later. After an additional 30 min incubation period at 37°C, cells were rinsed 3 times with Hank's balanced salt solution (Multicell Wisent, St. Bruno, Canada) and photographed in transmission and epifluorescence using an Olympus BX51 microscope coupled to a CoolSnap HQ digital camera (filters for AlexaFluor 488: excitation 460–500 nm, emission 510–560 nm).

[6] = microsomal stability; details: for microsomal CLint at 1 µM: male, Wistar, rat, liver microsomes, pH 7.4
[7] = molecular target: T6, B2 receptor (Homo sapiens, UniProt P30411); assay: [^3H]BK competition binding assay, CHO cell membranes; parameters: host or cells: CHO cells; details: for IC50 / Ki: competition with 0.3 nM [^3H]BK; for fold lower affinity compared to Compound 3 and icatibant: radioligand binding
T6 sequence (P30411 1-391): T1 sequence (P30411 1-391)

[8] = molecular target: T6, B2 receptor; assay: Ca^2+ mobilization assay, transfected CHO cells; assay type: cell-based; parameters: host or cells: CHO cells; details: for IC50 / Kb: inhibition of response to 0.03 nM BK
[9] = Caco-2 permeation assay (bidirectional); details: human
[10] = molecular target: T7, cynomolgus monkey B2 receptor (Macaca fascicularis, UniProt A0A7N9CWN6); details: mean ± S.D.
T7 sequence (A0A7N9CWN6 1-391): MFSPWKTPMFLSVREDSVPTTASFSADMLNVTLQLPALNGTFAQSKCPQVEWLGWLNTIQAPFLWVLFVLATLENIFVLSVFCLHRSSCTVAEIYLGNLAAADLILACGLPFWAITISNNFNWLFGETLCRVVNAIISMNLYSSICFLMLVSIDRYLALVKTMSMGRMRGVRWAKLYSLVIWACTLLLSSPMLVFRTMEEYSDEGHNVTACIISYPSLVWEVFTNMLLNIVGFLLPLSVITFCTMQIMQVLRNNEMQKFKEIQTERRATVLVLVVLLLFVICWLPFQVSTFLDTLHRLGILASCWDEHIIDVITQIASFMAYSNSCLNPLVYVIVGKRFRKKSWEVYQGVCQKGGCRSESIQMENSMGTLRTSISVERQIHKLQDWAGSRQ

[11] = molecular target: T7, cynomolgus monkey B2 receptor; assay: cell-based
[12] = antagonist 10 nM, Compound 2 2.25, Compound 3 1.52
[13] = antagonist 100 nM, Compound 2 2.25, Compound 3 1.52
[14] = antagonist 1 μM, Compound 2 2.25, Compound 3 1.52
[15] = antagonist 10 μM, Compound 2 2.25
[16] = arithmetic mean, read-out: IC50 (nM) Mean
[17] = arithmetic mean, read-out: Ki (nM) Mean
[18] = geometric mean, read-out: IC50 (nM) Geometric mean
[19] = geometric mean, read-out: Ki (nM) Geometric mean
[20] = arithmetic mean, read-out: Kb (nM) Mean
[21] = geometric mean, read-out: Kb (nM) Geometric mean

| Structure (SMILES) | type of antagonism of BK [1] | pA2 [1] | Kb [1] | Schild plot slope [1] | Maximal BK-induced response in absolute force units ± S.E.M. [1, 12] | Maximal BK-induced response in absolute force units ± S.E.M. [1, 13] | Maximal BK-induced response in absolute force units ± S.E.M. [1, 14] | Maximal BK-induced response in absolute force units ± S.E.M. [1, 15] | pA2 value converted into nM [1] | microsomal CLint at 1 µM [6] | IC50 [7, 16] | Ki [7, 17] | IC50 [7, 18] | Ki [7, 19] | fold lower affinity compared to Compound 3 and icatibant [7] | IC50 [8, 16] | Kb [8, 20] | IC50 [8, 18] | Kb [8, 21] | Papp A→B at 60 min, 10 µM [9] | other results |
| --- | --- | --- | --- | --- | --- | --- | --- | --- | --- | --- | --- | --- | --- | --- | --- | --- | --- | --- | --- | --- | --- |
| Cc1cc(-c2ncnn2C)c2cccc(OCc3c(Cl)cncc3C(C)NC(=O)COC(F)F)c2n1 (racemic) [Compound 2, rac-N-(1-(5-chloro-4-((2-methyl-4-(1-methyl-1H-1,2,4-triazol-5-yl)quinolin-8-yloxy)methyl)pyridin-3-yl)ethyl)-2-(difluoromethoxy)acetamide] | competitive | 9.02 ± 0.31 | 0.955 nM | −0.65 | 2.07 ± 0.30 grams-weight | 2.26 ± 0.42 grams-weight | 2.00 ± 0.32 grams-weight | 1.82 ± 0.18 grams-weight | 0.95 nM | 497 µL/min/mg | 7.6 nM | 3.9 nM | 7.6 nM | 3.9 nM | about 7 fold | 9.57 nM | 1.08 nM | 8.3 nM | 0.95 nM | 3.9 ×10⁻⁶ cm/s | effect on serotonin-induced contraction [2]: failed to modify; effect on U-46619-induced contraction [3]: failed to modify; antagonist concentration that significantly reduced the c-Fos response to BK ([4]; 60 min): 100 nM; effect on BK-induced c-Fos accumulation ([4]; co-treatment between 10 nM and 1 μM): inhibited this response in a concentration-dependent manner; concentration with clear efficacy in inhibiting BK-induced endocytosis [5]: ≥ 100 nM; fold lower intrinsic clearance compared with Compound 3 (so in the source) ([6]; rat microsomal stability assay): 18 fold; fold lower potency compared with Compound 3 ([8]; B2 receptor): 4.0 fold; Papp B→A at 60 min, 10 µM [9]: 29.9 ×10⁻⁶ cm/s; efflux ratio at 60 min, 10 µM [9]: 7.7 |
| Cc1cc(-c2ncnn2C)c2cccc(OCc3c(Cl)cncc3CNC(=O)C3CCCCC3)c2n1 [Compound 1, N-((5-chloro-4-((2-methyl-4-(1-methyl-1H-1,2,4-triazol-5-yl)quinolin-8-yloxy)methyl)pyridin-3-yl)methyl)cyclohexanecarboxamide] | competitive | 8.58 ± 0.26 | 2.63 nM | −0.62 | 1.48 ± 0.24 grams-weight | 2.08 ± 0.28 grams-weight | 1.46 ± 0.20 grams-weight | 1.67 ± 0.28 grams-weight | 2.63 nM | 960 µL/min/mg | 7.4 nM | 3.8 nM | 7.4 nM | 3.8 nM | about 7 fold | 11.3 nM | 1.3 nM | 11 nM | 1.24 nM | 5.5 ×10⁻⁶ cm/s | Papp B→A at 60 min, 10 µM [9]: 20.9 ×10⁻⁶ cm/s; efflux ratio at 60 min, 10 µM [9]: 5.5 |
| N=C(N)NCCC[C@H](NC(=O)[C@H](Cc1ccccc1)NC(=O)[C@@H]1CCCN1C(=O)[C@H](CO)NC(=O)[C@H](Cc1ccccc1)NC(=O)CNC(=O)[C@@H]1CCCN1C(=O)[C@@H]1CCCN1C(=O)[C@@H](N)CCCNC(=N)N)C(=O)O [BK] (H-RPPGFSPFR-OH) | – | – | – | – | – | – | – | – | – | – | – | – | – | – | – | – | – | – | – | – | average agonist EC80, Ca^2+ mobilization [10]: 0.539 ± 0.16 nM |
| NC(N)=NCCC[C@H](NC(=O)[C@H](Cc1ccccc1)NC(=O)[C@@H]1CCCN1C(=O)[C@H](CO)NC(=O)[C@H](Cc1ccccc1)NC(=O)CNC(=O)[C@@H]1CCCN1C(=O)[C@@H]1CCCN1C(=O)[C@@H](N)CCCN=C(N)N)C(=O)O [BK] (H-RPPGFSPFR-OH) | – | – | – | – | – | – | – | – | – | – | – | – | – | – | – | – | – | – | – | – | EC50 [11]: 0.155 ± 0.043 nM |
